In the assay the target is T1, human α7 nAChR (Homo sapiens, UniProt P36544).
T1 construct: host or cells: HEK
As to the kind of experiment: Automated patch-clamp electrophysiology functional assay (Assay A). The assay is classed as cell-based. The following applies: HEK cell line stably expressing human RIC-3 and human α7, IonFlux HT whole-cell population patch, with or without 40 μM acetylcholine. In short, it runs like this: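 Whole-cell population patch clamp at −60 mV, room temperature, on HEK cells stably co-expressing human α7 and RIC-3; compounds tested at three ascending concentrations per recording, alone (agonism) or with 40 μM acetylcholine (potentiation). Currents normalised to an initial 1 s 40 μM acetylcholine response; EC50 from concentration series.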
(In patch-clamp work, channel activity is measured electrically.)

Read-outs that look alike come from different tables or passages of the source.

T1 sequence (P36544 23-502): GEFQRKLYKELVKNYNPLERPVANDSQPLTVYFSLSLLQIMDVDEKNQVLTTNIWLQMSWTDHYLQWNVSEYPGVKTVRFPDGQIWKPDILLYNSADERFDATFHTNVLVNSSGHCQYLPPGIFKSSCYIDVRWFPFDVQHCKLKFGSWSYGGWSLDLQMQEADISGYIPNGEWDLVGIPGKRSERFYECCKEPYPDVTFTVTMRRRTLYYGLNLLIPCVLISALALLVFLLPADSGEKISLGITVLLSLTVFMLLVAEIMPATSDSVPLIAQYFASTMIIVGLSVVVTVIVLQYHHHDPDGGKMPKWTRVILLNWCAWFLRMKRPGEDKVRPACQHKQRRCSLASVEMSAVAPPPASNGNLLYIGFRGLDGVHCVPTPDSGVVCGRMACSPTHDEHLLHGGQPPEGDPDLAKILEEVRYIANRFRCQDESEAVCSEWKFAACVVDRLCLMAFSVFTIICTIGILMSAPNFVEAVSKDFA

With `NS(=O)(=O)N1CCC2(CC1)C[C@H]2COc1cccc(N2CCOCC2)n1` [Example 16, (1R)-1-({[6-(Morpholin-4-yl)pyridin-2-yl]oxy}methyl)-6-azaspiro[2.5]octane-6-sulfonamide], the EC50 was 100 nM (read-out: α7 nAChR EC50) and 100 to 500 nM (read-out: α7 nAChR Potency).

With `Cn1nc(C(F)(F)F)cc1OCC1C(F)(F)C12CCN(S(N)(=O)=O)CC2` (single isomer, unassigned) [Example A12, 1,1-difluoro-2-({[1-methyl-3-(trifluoromethyl)-1H-pyrazol-5-yl]oxy}methyl)-6-azaspiro[2.5]octane-6-sulfonamide], the EC50 reads like this: (read-out: α7 nAChR EC50) 4200 nM; (read-out: α7 nAChR Potency) 500 to 5000 nM.

In the case of `NS(=O)(=O)N1CCC2(CC1)C[C@H]2C(=O)Nc1cccc(Cl)c1` [Example B2, (1R)—N-(3-chlorophenyl)-6-sulfamoyl-6-azaspiro[2.5]octane-1-carboxamide], the EC50 (read-out: α7 nAChR Potency) lay within 500 to 5000 nM.

As for `NS(=O)(=O)N1CCC2(CC1)C(COc1cccnc1OCC(F)(F)F)C2(F)F` (single isomer, unassigned) [Example A36, 1,1-difluoro-2-({[2-(2,2,2-trifluoroethoxy)pyridin-3-yl]oxy}methyl)-6-azaspiro[2.5]octane-6-sulfonamide], the EC50 was 1200 nM (read-out: α7 nAChR EC50) and 500 to 5000 nM (read-out: α7 nAChR Potency).

For the compound `NS(=O)(=O)N1CCC2(CC1)C[C@H]2COc1cccnc1OCC(F)(F)F` [Example 8, (1R)-1-({[2-(2,2,2-Trifluoroethoxy)pyridin-3-yl]oxy}methyl)-6-azaspiro[2.5]octane-6-sulfonamide], the EC50 by setting is: (read-out: α7 nAChR EC50) 1200 nM; (read-out: α7 nAChR Potency) 500 to 5000 nM.

Take `NS(=O)(=O)N1CCC2(CC1)C(COc1cccc(OCC(F)(F)F)n1)C2(F)F` (single isomer, unassigned) [Example A41, 1,1-difluoro-2-({[6-(2,2,2-trifluoroethoxy)pyridin-2-yl]oxy}methyl)-6-azaspiro[2.5]octane-6-sulfonamide]: the EC50 (read-out: α7 nAChR Potency) lay within 100 to 500 nM.

`NS(=O)(=O)N1CCC2(CC1)C[C@@H]2COc1noc(-c2ccccc2)n1` [Example A13, (1S)-1-{[(5-phenyl-1,2,4-oxadiazol-3-yl)oxy]methyl}-6-azaspiro[2.5]octane-6-sulfonamide]: the EC50 was 4100 nM (read-out: α7 nAChR EC50) and 500 to 5000 nM (read-out: α7 nAChR Potency).

As to `NS(=O)(=O)N1CCC2(CC1)C(COc1ccc(F)cc1C(F)(F)F)C2(F)F` (single isomer, unassigned) [Example A10, 1,1-difluoro-2-{[4-fluoro-2-(trifluoromethyl)phenoxy]methyl}-6-azaspiro[2.5]octane-6-sulfonamide], the EC50 (read-out: α7 nAChR EC50) turned out to be 1500 nM and the EC50 (read-out: α7 nAChR Potency) was 500 to 5000 nM.

On to `CC(C)(O)c1cccc(OC[C@@H]2CC23CCN(S(N)(=O)=O)CC3)n1` [Example A52, (1R)-1-({[6-(2-hydroxypropan-2-yl)pyridin-2-yl]oxy}methyl)-6-azaspiro[2.5]octane-6-sulfonamide], for which the EC50 is 480 nM (read-out: α7 nAChR EC50) and 100 to 500 nM (read-out: α7 nAChR Potency).

On to `NS(=O)(=O)N1CCC2(CC1)C[C@@H]2COc1cccc(OCC(F)(F)F)n1` [Example A38, (1S)-1-({[6-(2,2,2-trifluoroethoxy)pyridin-2-yl]oxy}methyl)-6-azaspiro[2.5]octane-6-sulfonamide], for which the EC50 by setting is: (read-out: α7 nAChR EC50) 720 nM; (read-out: α7 nAChR Potency) 500 to 5000 nM.

Consider `COc1cc(OC[C@@H]2CC23CCN(S(N)(=O)=O)CC3)ccc1F` [Example A4, (1R)-1-[(4-fluoro-3-methoxyphenoxy)methyl]-6-azaspiro[2.5]octane-6-sulfonamide], for which the EC50 (read-out: α7 nAChR Potency) lay within 500 to 5000 nM.

Take `NS(=O)(=O)N1CCC2(CC1)C(COc1ccnc(OC(F)F)c1)C2(F)F` (single isomer, unassigned) [Example 3, 2-({[2-(Difluoromethoxy)pyridin-4-yl]oxy}methyl)-1,1-difluoro-6-azaspiro[2.5]octane-6-sulfonamide]: the EC50 (read-out: α7 nAChR EC50) is 930 nM and the EC50 (read-out: α7 nAChR Potency) lay in the range of 500 to 5000 nM.

With `NS(=O)(=O)N1CCC2(CC1)CC2COc1cccc(OCC(F)(F)F)c1` (stereo not shown) [Example 7, 1-{[3-(2,2,2-Trifuoroethoxy)phenoxy]methyl}-6-azaspiro[2.5]octane-6-sulfonamide], the EC50 by setting is: (read-out: α7 nAChR EC50) 330 nM; (read-out: α7 nAChR Potency) 100 to 500 nM.

In the case of `COc1ccc(Cl)cc1OCC1C(F)(F)C12CCN(S(N)(=O)=O)CC2` (single isomer, unassigned) [Example A3, 2-[(5-chloro-2-methoxyphenoxy)methyl]-1,1-difluoro-6-azaspiro[2.5]octane-6-sulfonamide], the EC50 is, setting by setting: (read-out: α7 nAChR EC50) 1300 nM; (read-out: α7 nAChR Potency) 500 to 5000 nM.

The values are drawn from patent publication US12331022B2, “Spiropiperidine allosteric modulators of nicotinic acetylcholine receptors” (Merck Sharp & Dohme LLC, priority 2019, dated 2025).
